Data reported in the supplement of paper PMC10307832.

Tests used:
Assay in all cases: relative viability (nuclei count vs DMSO), 5 days (fraction); higher = more cells survive
PAC-1 + Linsitinib = compound: C=CCc1cccc(/C=N/NC(=O)CN2CCN(Cc3ccccc3)CC2)c1O [PAC-1] + C[C@]1(O)C[C@@H](c2nc(-c3ccc4ccc(-c5ccccc5)nc4c3)c3c(N)nccn32)C1 [Linsitinib] (partner 1 µM)
In short: (§1)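 Lung cancer cell lines were seeded in 1536-well plates and dosed by pin tool the next day, with either a single drug or a fixed anchor-drug dose combined with five library-drug doses (not always all listed) spaced in √10 steps. Five days later, one step fixed the cells and stained their nuclei (final 0.05% Triton X-100, 1% formaldehyde, 1 ug/ml Hoechst), and nuclei were counted on 4× images. Relative viability is the nuclei count in treated wells divided by the count in vehicle wells, and each value is the median of duplicate plates.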

Ibrutinib + Foretinib = compound: C=CC(=O)N1CCC[C@@H](n2nc(-c3ccc(Oc4ccccc4)cc3)c3c(N)ncnc32)C1 [Ibrutinib] + COc1cc2c(Oc3ccc(NC(=O)C4(C(=O)Nc5ccc(F)cc5)CC4)cc3F)ccnc2cc1OCCCN1CCOCC1 [Foretinib] (partner 0.25 µM)
In short: as §1

Ibrutinib + OSI-027 = compound: C=CC(=O)N1CCC[C@@H](n2nc(-c3ccc(Oc4ccccc4)cc3)c3c(N)ncnc32)C1 [Ibrutinib] + COc1cccc2cc(-c3nc([C@H]4CC[C@H](C(=O)O)CC4)n4ncnc(N)c34)[nH]c12 [OSI-027] (partner 0.5 µM)
In short: as §1

Ibrutinib + Trametinib = compound: C=CC(=O)N1CCC[C@@H](n2nc(-c3ccc(Oc4ccccc4)cc3)c3c(N)ncnc32)C1 [Ibrutinib] + CC(=O)Nc1cccc(-n2c(=O)n(C3CC3)c(=O)c3c(Nc4ccc(I)cc4F)n(C)c(=O)c(C)c32)c1 [Trametinib] (partner 0.02 µM)
In short: as §1

Cell Line	relative viability (PAC-1 + Linsitinib; first compound 0.02 µM)	relative viability (PAC-1 + Linsitinib; first compound 0.06325 µM)	relative viability (PAC-1 + Linsitinib; first compound 0.2 µM)	relative viability (PAC-1 + Linsitinib; first compound 2 µM)	relative viability (Ibrutinib + Foretinib; first compound 0.01581 µM)	relative viability (Ibrutinib + Foretinib; first compound 0.05 µM)	relative viability (Ibrutinib + Foretinib; first compound 0.1581 µM)	relative viability (Ibrutinib + Foretinib; first compound 0.5 µM)	relative viability (Ibrutinib + Foretinib; first compound 0.005 µM)	relative viability (Ibrutinib + OSI-027; first compound 0.005 µM)	relative viability (Ibrutinib + OSI-027; first compound 0.01581 µM)	relative viability (Ibrutinib + OSI-027; first compound 0.05 µM)	relative viability (Ibrutinib + OSI-027; first compound 0.1581 µM)	relative viability (Ibrutinib + OSI-027; first compound 0.5 µM)	relative viability (Ibrutinib + Trametinib; first compound 0.005 µM)	relative viability (Ibrutinib + Trametinib; first compound 0.01581 µM)	relative viability (Ibrutinib + Trametinib; first compound 0.05 µM)	relative viability (Ibrutinib + Trametinib; first compound 0.1581 µM)	relative viability (Ibrutinib + Trametinib; first compound 0.5 µM)
NCI-H1703	0.646	0.423	0.765	0.932	0.322	0.317	0.307	0.338											
IA-LM	0.771	0.716	0.639	0.58	1.04	1.1	1.24	1.1	1.11										
NCI-H1623					0.701	0.568	0.692	0.289	0.8	0.42	0.403	0.32	0.42	0.313					
ChaGo-K-1					0.902	0.937	0.954	0.853	0.842	0.582	0.521	0.482	0.414	0.63	0.907	0.879	0.922	0.857	0.854
NCI-H2342					1	0.812	1.12	0.801	0.9	0.462	0.566	0.494	0.532	0.505	0.801	0.873	0.659	0.773	0.676
NCI-H2170					0.858	0.951	1.01	0.377	1.06	0.48	0.587	0.459	0.822	0.272	0.806	0.744	0.637	0.955	0.184
ABC-1	0.791	0.746	0.822	1.02	0.961	1.28	1.09	0.897	1.27	0.331	0.457	0.479	0.441	0.547					
NCI-H522										0.656	0.693	0.692	0.597	0.648	0.757	0.714	0.661	0.71	0.57
HCC-44	0.684	0.68	0.678	0.712						0.44	0.517	0.585		0.669	1.04	1.04	0.992	1.19	1.06
NCI-H1792	0.648	0.602	0.534	0.579							0.712	0.677		0.808		0.404	0.48	0.44	0.36
NCI-H1648										0.243	0.288	0.278	0.256	0.306	0.565	0.433	0.316	0.418	0.257
